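The compound was tested at five concentrations on cells cultured in 96-well plates, with a 48-hour exposure period. GI50 marks 50% less growth. TGI marks complete inhibition of growth.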
Experiments:
Assay in all cases: NCI-60 cell line screen, 48 h
[1] = test system: 786-0 renal
[2] = test system: ACHN renal
[3] = test system: BT-549 breast
[4] = test system: CAKI-1 renal
[5] = test system: CCRF-CEM leukemia
[6] = test system: COLO 205 colon
[7] = test system: DU-145 prostate
[8] = test system: EKVX NSCLC
[9] = test system: HCC-2998 colon
[10] = test system: HCT-116 colon
[11] = test system: HCT-15 colon
[12] = test system: HL-60(TB) leukemia
[13] = test system: HOP-62 NSCLC
[14] = test system: HOP-92 NSCLC
[15] = test system: HS 578T breast
[16] = test system: HT29 colon
[17] = test system: IGROV1 ovarian
[18] = test system: K-562 leukemia
[19] = test system: KM12 colon
[20] = test system: LOX IMVI melanoma
[21] = test system: M14 melanoma
[22] = test system: MALME-3M melanoma
[23] = test system: MCF7 breast
[24] = test system: MDA-MB-435
[25] = test system: MDA-MB-468 breast
[26] = test system: MOLT-4 leukemia
[27] = test system: NCI-H23 lung
[28] = test system: NCI-H460 lung
[29] = test system: NCI-H522 lung
[30] = test system: NCI/ADR-RES ovarian
[31] = test system: OVCAR-3 ovarian
[32] = test system: OVCAR-4 ovarian
[33] = test system: OVCAR-5 ovarian
[34] = test system: OVCAR-8 ovarian
[35] = test system: RPMI-8226 leukemia
[36] = test system: RXF 393 renal
[37] = test system: SF-268 CNS
[38] = test system: SF-539 CNS
[39] = test system: SK-MEL-28 melanoma
[40] = test system: SK-MEL-5 melanoma
[41] = test system: SK-OV-3 ovarian
[42] = test system: SN12C renal
[43] = test system: SNB-19 CNS
[44] = test system: SR leukemia
[45] = test system: SW-620 colon
[46] = test system: T-47D breast
[47] = test system: TK-10 renal
[48] = test system: UACC-257 melanoma
[49] = test system: UACC-62 melanoma

COc1cc2cc(C(=O)N3C[C@@H](CCl)c4c3cc(OC(=O)N3CCN(C)[C@@H]5CSSC[C@H]53)c3ccccc43)[nH]c2c(OC)c1OC
GI50 [1]: 16.3 nM | TGI [1]: 69.3 nM | GI50 [2]: < 7.85 nM | TGI [2]: 29.3 nM | GI50 [3]: 15.4 nM | TGI [3]: 55.9 nM | GI50 [4]: 27.3 nM | TGI [4]: 586 nM | GI50 [5]: 26.3 nM | TGI [5]: 2000 nM | GI50 [6]: 49.2 nM | TGI [6]: 176 nM | GI50 [7]: < 7.85 nM | TGI [7]: 9010 nM | GI50 [8]: 18.2 nM | TGI [8]: 133 nM | GI50 [9]: 15.4 nM | TGI [9]: 37.8 nM | GI50 [10]: 18.1 nM | TGI [10]: 8510 nM | GI50 [11]: 21.8 nM | TGI [11]: 554 nM | GI50 [12]: < 7.85 nM | TGI [12]: 110 nM | GI50 [13]: 12.3 nM | TGI [13]: 65.4 nM | GI50 [14]: 26.7 nM | TGI [14]: 824 nM | GI50 [15]: 159 nM | TGI [15]: 668 nM | GI50 [16]: 34.1 nM | TGI [16]: 876 nM | GI50 [17]: 58.4 nM | TGI [17]: 266 nM | GI50 [18]: 24.6 nM | TGI [18]: 78500 nM | GI50 [19]: 43.7 nM | TGI [19]: 3640 nM | GI50 [20]: 12.2 nM | TGI [20]: 43.5 nM | GI50 [21]: 10.5 nM | TGI [21]: 26.2 nM | GI50 [22]: 13.7 nM | TGI [22]: 33.3 nM | GI50 [23]: < 7.85 nM | TGI [23]: 178 nM | GI50 [24]: 27.4 nM | TGI [24]: 138 nM | GI50 [25]: 11.5 nM | TGI [25]: 30.8 nM | GI50 [26]: < 7.85 nM | TGI [26]: 215 nM | GI50 [27]: < 7.85 nM | TGI [27]: 13.8 nM | GI50 [28]: < 7.85 nM | TGI [28]: 791 nM | GI50 [29]: 12.4 nM | TGI [29]: 48 nM | GI50 [30]: 11.1 nM | TGI [30]: 52.8 nM | GI50 [31]: 52.7 nM | TGI [31]: 578 nM | GI50 [32]: 160 nM | TGI [32]: 799 nM | GI50 [33]: 36.3 nM | TGI [33]: 380 nM | GI50 [34]: 8.62 nM | TGI [34]: 68 nM | GI50 [35]: 33.9 nM | TGI [35]: 458 nM | GI50 [36]: 9.53 nM | TGI [36]: 20.1 nM | GI50 [37]: 14.8 nM | TGI [37]: 1350 nM | GI50 [38]: 9.97 nM | TGI [38]: 29.3 nM | GI50 [39]: 14.5 nM | TGI [39]: 31 nM | GI50 [40]: 13.2 nM | TGI [40]: 24.2 nM | GI50 [41]: 12.4 nM | TGI [41]: 44.3 nM | GI50 [42]: 17.1 nM | TGI [42]: 831 nM | GI50 [43]: 16.4 nM | TGI [43]: 1090 nM | GI50 [44]: < 7.85 nM | TGI [44]: 61.3 nM | GI50 [45]: 58.1 nM | TGI [45]: 78500 nM | GI50 [46]: 50.2 nM | TGI [46]: 553 nM | GI50 [47]: 127 nM | TGI [47]: 2400 nM | GI50 [48]: 23.9 nM | TGI [48]: 78.4 nM | GI50 [49]: 15.1 nM | TGI [49]: 87.9 nM
